Patent US11291205B2, “Microbiocidal picolinamide derivatives” (Syngenta Participations AG, priority 2017, dated 2022)

Columns and labels:
[1] = tested on: Glomerella lagenarium (Colletotrichum lagenarium); assay: Glomerella lagenarium (Colletotrichum lagenarium) / liquid culture (anthracnose); type: cell-based; settings: Colletotrichum orbiculare, 72 h, 200 ppm in the formulation, inhibition of growth measured photometrically 3 to 4 days after application, compared to untreated control, read-out: disease control
Description: (§1) Glomerella lagenarium (Colletotrichum lagenarium)/Liquid Culture (Anthracnose) Conidia of the fungus from cryogenic storage are directly mixed into nutrient broth (PDB potato dextrose broth). After placing a (DMSO) solution of test compound into a microtiter plate (96-well format), the nutrient broth containing the fungal spores is added. The test plates are incubated at 24° C. and the inhibition of growth is measured photometrically 3 to 4 days after application.

[2] = tested on: Monographella nivalis (Microdochium nivale); assay: Monographella nivalis (Microdochium nivale) / liquid culture (foot rot cereals); type: cell-based; settings: 96 h, 200 ppm in the formulation, inhibition of growth determined photometrically 4-5 days after application, compared to untreated control, read-out: disease control
Description: as §1, with “Monographella nivalis (Microdochium nivale)/Liquid” for “Glomerella lagenarium (Colletotrichum lagenarium)/Liquid”, “(Foot Rot Cereals)” for “(Anthracnose)”, “determined” for “measured”, “4-5” for “3 to 4”

[3] = tested on: Mycosphaerella arachidis (Cercospora arachidicola); assay: Mycosphaerella arachidis (Cercospora arachidicola) / liquid culture (early leaf spot); type: cell-based; settings: 96 h, 200 ppm in the formulation, inhibition of growth determined photometrically 4-5 days after application, compared to untreated control, read-out: disease control
Description: as §1, with “Mycosphaerella arachidis (Cercospora arachidicola)/Liquid” for “Glomerella lagenarium (Colletotrichum lagenarium)/Liquid”, “(Early Leaf Spot)” for “(Anthracnose)”, “determined” for “measured”, “4-5” for “3 to 4”

[4] = tested on: Mycosphaerella graminicola (Septoria tritici); assay: Mycosphaerella graminicola (Septoria tritici) / liquid culture (Septoria blotch); type: cell-based; settings: Zymoseptoria tritici, 96 h, 200 ppm in the formulation, inhibition of growth determined photometrically 4 to 5 days after application, compared to untreated control, read-out: disease control
Description: Mycosphaerella graminicola (Septoria tritici)/Liquid Culture (Septoria Blotch) Conidia of the fungus from cryogenic storage are directly mixed into nutrient broth (PDB potato dextrose broth). After placing a (DMSO) solution of test compound into a microtiter plate (96-well format), the nutrient broth containing the fungal spores is added. The test plates are incubated at 24° C. and the inhibition of growth is determined photometrically 4 to 5 days after application.

[5] = tested on: Phaeosphaeria nodorum (Septoria nodorum); assay: Phaeosphaeria nodorum (Septoria nodorum) / wheat / leaf disc preventative (glume blotch); type: in vivo; settings: 200 ppm in the formulation; wheat leaf segments cv. Kanzler; compared to untreated control; 5-7 days after application
Description: Phaeosphaeria nodorum (Septoria nodorum)/Wheat/Leaf Disc Preventative (Glume Blotch) Wheat leaf segments cv. Kanzler are placed on agar in a multiwell plate (24-well format) and sprayed with the formulated test compound diluted in water. The leaf disks are inoculated with a spore suspension of the fungus 2 days after application. The inoculated test leaf disks are incubated at 20° C. and 75% rh under a light regime of 12 h light/12 h darkness in a climate cabinet and the activity of a compound is assessed as percent disease control compared to untreated when an appropriate level of disease damage appears in untreated check leaf disks (5-7 days after application).

Compound: COc1ccnc(C(=O)N[C@@H](C)C(=O)OC2CCC2(c2ccccc2C)c2ccccc2C)c1O (stereo partly drawn) [I.o.02, [2,2-bis(o-tolyl)cyclobutyl] (2S)-2-[(3-hydroxy-4-methoxy-pyridine-2-carbonyl)amino]propanoate]
- inhibition of growth at 200 ppm [1]: ≥ 80%
- inhibition of growth at 200 ppm [2]: ≥ 80%
- inhibition of growth at 200 ppm [3]: ≥ 80%
- inhibition of growth at 200 ppm [4]: ≥ 80%
- disease control [5]: at least 80%
